Experimental data from patent US20190002399A1 (Nektar Therapeutics, priority 2007, published 2019).
Like-named read-outs stand apart in the source and are kept apart here. Marks after values point to notes of the source that are not given here.

Tests used:
[1] = pKa determination of conjugates; assay type: physicochemical
[2] = Log P determination of conjugates; assay type: physicochemical
[3] = system: CB-1 male mice; assay: Analgesic assay: acetic acid writhing test; assay type: in vivo
Method: An analgesic assay was used to determine whether a given compound can reduce and/or prevent visceral pain in mice.
The assay utilized CB-1 male mice (5-8 mice per group), each mouse being approximately 0.015-0.030 kg on the study day. Mice were treated according to standard protocols.
Mice were given a single “pretreatment” dose of a compound lacking covalent attachment of a water-soluble, non-peptidic oligomer, a corresponding conjugate comprising the compound covalently attached to a water-soluble, non-peptidic oligomer, or control solution (IV, SC, IP or orally) thirty minutes prior to the administration of the acetic acid solution. The animal was given an IP injection of an irritant (acetic acid) that induces “writhing” which may include: contractions of the abdomen, twisting and turning of the trunk, arching of the back and the extension of the hind limbs. […] After the injection the animals were returned to their cages and their behavior was observed. Contractions were counted between 0 and 20 minutes after the injection. The animals were used once. […]

[4] = molecular target: T1, human Na channels expressed in native cells (human atrial myocytes) (Homo sapiens, UniProt Q14524); assay: Potency at sodium channels: whole-cell patch clamp of sodium current (INa) in isolated human atrial myocytes; assay type: cell-based
T1 construct: from tissue; host or cells: cardiomyocytes isolated from human atrial appendages
T1 sequence (Q14524 whole entry): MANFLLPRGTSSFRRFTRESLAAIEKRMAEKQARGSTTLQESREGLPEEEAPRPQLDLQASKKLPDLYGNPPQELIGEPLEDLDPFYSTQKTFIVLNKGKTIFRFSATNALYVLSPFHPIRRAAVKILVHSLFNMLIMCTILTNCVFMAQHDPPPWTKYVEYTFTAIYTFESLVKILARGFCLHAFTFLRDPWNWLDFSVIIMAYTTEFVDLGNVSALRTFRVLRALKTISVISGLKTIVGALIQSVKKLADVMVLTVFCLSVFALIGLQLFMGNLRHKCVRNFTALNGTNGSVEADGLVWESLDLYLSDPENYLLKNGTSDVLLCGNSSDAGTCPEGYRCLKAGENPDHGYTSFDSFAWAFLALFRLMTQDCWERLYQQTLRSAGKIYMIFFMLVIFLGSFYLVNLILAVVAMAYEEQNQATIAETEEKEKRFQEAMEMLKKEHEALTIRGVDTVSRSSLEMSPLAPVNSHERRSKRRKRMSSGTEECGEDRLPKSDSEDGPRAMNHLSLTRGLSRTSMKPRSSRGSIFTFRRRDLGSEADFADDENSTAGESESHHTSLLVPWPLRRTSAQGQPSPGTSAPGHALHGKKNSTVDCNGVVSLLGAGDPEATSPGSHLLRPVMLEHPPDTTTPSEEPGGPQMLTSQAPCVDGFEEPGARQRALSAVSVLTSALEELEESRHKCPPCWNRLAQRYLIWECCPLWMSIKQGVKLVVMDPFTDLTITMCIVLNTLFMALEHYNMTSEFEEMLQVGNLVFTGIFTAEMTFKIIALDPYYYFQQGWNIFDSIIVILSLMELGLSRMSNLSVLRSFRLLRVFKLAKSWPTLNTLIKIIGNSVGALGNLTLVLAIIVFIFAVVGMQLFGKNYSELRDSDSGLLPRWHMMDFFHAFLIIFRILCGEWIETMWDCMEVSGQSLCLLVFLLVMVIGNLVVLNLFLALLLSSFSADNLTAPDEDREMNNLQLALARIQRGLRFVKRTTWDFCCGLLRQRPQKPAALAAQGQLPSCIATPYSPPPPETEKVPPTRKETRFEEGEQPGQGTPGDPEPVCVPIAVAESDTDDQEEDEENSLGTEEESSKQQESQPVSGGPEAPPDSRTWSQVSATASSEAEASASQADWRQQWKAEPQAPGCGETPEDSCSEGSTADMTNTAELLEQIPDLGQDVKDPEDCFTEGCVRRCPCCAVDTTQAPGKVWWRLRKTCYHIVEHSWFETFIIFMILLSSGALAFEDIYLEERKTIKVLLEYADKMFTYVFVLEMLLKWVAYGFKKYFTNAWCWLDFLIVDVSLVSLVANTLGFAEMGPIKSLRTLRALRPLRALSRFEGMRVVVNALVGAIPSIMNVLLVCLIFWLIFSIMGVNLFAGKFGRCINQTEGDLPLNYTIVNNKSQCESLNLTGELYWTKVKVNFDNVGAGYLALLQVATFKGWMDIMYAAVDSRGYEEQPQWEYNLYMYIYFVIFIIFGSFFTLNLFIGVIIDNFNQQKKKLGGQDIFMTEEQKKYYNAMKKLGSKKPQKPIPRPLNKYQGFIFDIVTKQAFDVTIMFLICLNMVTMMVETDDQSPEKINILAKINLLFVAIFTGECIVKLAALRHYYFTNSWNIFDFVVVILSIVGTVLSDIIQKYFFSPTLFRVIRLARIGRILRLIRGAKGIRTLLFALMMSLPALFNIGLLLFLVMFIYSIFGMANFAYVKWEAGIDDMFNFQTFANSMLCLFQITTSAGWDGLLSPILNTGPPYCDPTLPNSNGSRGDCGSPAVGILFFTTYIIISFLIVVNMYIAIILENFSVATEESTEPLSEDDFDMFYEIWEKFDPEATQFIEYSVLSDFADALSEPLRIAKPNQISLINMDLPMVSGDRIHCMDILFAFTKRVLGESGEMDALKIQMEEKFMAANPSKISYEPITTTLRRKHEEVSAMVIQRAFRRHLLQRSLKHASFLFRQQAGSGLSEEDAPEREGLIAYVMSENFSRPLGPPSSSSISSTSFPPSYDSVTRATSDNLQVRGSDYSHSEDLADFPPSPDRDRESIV
Method: Experiments were performed at 23±1° C. Currents were measured using the whole-cell variant of the patch clamp method. An Axopatch 1-B amplifier (Axon Instruments, Foster City, Calif.) was used for whole-cell voltage clamping. […] Peak inward current was measured for INa. […] Creation of voltage clamp pulses and data acquisition were controlled by a PC running pClamp software (version 9.2, Axon Instruments). Test compounds were added in a cumulative manner. Data are presented as % reduction of current amplitude. […] Each cell served as its own control. Log-linear plots were created of the mean percent blockade ±SEM at the concentrations tested. Nonlinear curve fitting routine was utilized to fit a three-parameter Hill equation to the results using MicroCal Origin, version 6.0 software.

[5] = 10 mg/kg, SC, 30 min before IP 0.5% acetic acid, counted 0-20 min
[6] = 10 mg/kg, SC, animals with writhes ≤ upper 95% confidence limit for morphine
[7] = 10 mg/kg, SC, responding animals/N
[8] = lidocaine series, IC50 at 0.1 Hz relative to lidocaine
[9] = mexiletine series, IC50 at 0.1 Hz relative to mexiletine
[10] = lidocaine series, peak INa, human atrial myocytes, pacing 0.1 Hz, 23±1° C

| Molecule | pKa1 ([1]; Table 2, mexiletine conjugates) | logP ([2]; read-out: LogP) | % Reduction in Writhing ([3]; 10 mg/kg, SC) | Mean (writhes) [3, 5] | # of Responders [3, 6] | Responding Fraction [3, 7] | Fold Change vs. Parent [4, 8] | IC50 ([4]; read-out: IC50 at 0.1 Hz) [µM] | Fold Change vs. Parent [4, 9] | other results |
| --- | --- | --- | --- | --- | --- | --- | --- | --- | --- | --- |
| COCCOCCOCCOCCOCCNC(C)COc1c(C)cccc1C (stereo not drawn) [N-mPEG5-Mexiletine, N-mPEG5-mexiletine] | 8.27 | 4.51 | 42.4% | 29.0 | 2 | 0.40 |  |  |  | pKa2 ([1]; Table 2, mexiletine conjugates): 7.86 |
| CCN(CCOCCOCCOCCOCCOCCO)CC(=O)Nc1c(C)cccc1C [PEG6-Lidocaine, HO-PEG6-Lidocaine] |  |  |  |  |  |  | 1 | 104 |  |  |
| CCN(CCOCCOCCOCCOCCO)CC(=O)Nc1c(C)cccc1C [PEG5-Lidocaine, HO-PEG5-Lidocaine] |  |  |  |  |  |  | 3 | 330 |  |  |
| COCCOCCOCCNC(C)COc1c(C)cccc1C (stereo not drawn) [N-mPEG3-Mexiletine, N-mPEG3-mexiletine] | 8.27 | 2.26 |  |  |  |  |  | 284 | 5 |  |
| PEG5-di-lidocaine [mPEG5-Di-Lidocaine] |  |  | 60.3* % | 17.3 | 2 | 0.50* | 1 |  |  | IC50 [4, 10]: 83.3 µM; # of Responders ([3]; 3 mg/kg, SC): 2; % Reduction in Writhing ([3]; 3 mg/kg, SC): 46.0%; Responding Fraction ([3]; 3 mg/kg, SC): 0.50; Mean (writhes) ([3]; 3 mg/kg, SC, 30 min before IP 0.5% acetic acid, counted 0-20 min): 23.5 |
| CCN(CCOCCOCCOCCOCCOC)CC(=O)Nc1c(C)cccc1C [mPEG5-Lidocaine, mPEG5-lidocaine] |  |  |  |  |  |  | 1 |  |  | pKa ([1]; Table 1, lidocaine conjugates): 6.46; logP ([2]; Table 1, lidocaine conjugates): 1.01; IC50 [4, 10]: 53.5 µM |
| PEG6-di-lidocaine [mPEG6-Di-Lidocaine] |  |  | 37.9% | 27.0 | 3 | 0.60 | 2 |  |  | IC50 [4, 10]: 236 µM |
| CCNCCOCCOCCOCCOCCN(CC)CC(=O)Nc1c(C)cccc1C [EtNH-PEG5-Lidocaine, EtNH-PEG5-lidocaine] |  |  |  |  |  |  | 1 | 99.3 |  |  |
| CCN(CCOCCOCCOCCOCCOCCOCCOCCOCCOC)CC(=O)Nc1c(C)cccc1C [mPEG9-Lidocaine, mPEG9-lidocaine] |  | 0.82 |  |  |  |  | 2 | 173 |  | pKa ([1]; read-out: pKa): 6.57 |
| CN1CC[C@]23c4c5ccc(O)c4O[C@H]2[C@@H](O)C=C[C@H]3[C@H]1C5 [Morphine, morphine, reference compound] |  |  |  |  |  |  |  |  |  | # of Responders ([3]; historical morphine data, N 27, animals with writhes ≤ upper 95% confidence limit for morphine): 15; Mean (writhes) ([3]; historical morphine data, contractions counted 0-20 min after IP 0.5% acetic acid, group table: SC 0.5 mg/kg): 21.33; % Reduction in Writhing ([3]; historical morphine data, group table: SC 0.5 mg/kg): 57%; Responding Fraction ([3]; historical morphine data, responding animals/N): 0.56 |
| COCCOCCOCCOCCOCCOCCOCCNC(C)COc1c(C)cccc1C (stereo not drawn) [N-mPEG7-Mexiletine, N-mPEG7-mexiletine] | 8.26 | 1.23 |  |  |  |  |  | 206 | 4 |  |
| COCCOCCOCCOCCCNC(C)COc1c(C)cccc1C (stereo not drawn) [N-mPEG3-C3-Mexiletine, N-mPEG3-C3-mexiletine] | 8.98 | 2.05 | 46.3% | 29.8 | 2 | 0.40 |  | 188 | 4 |  |
| CCN(CCOCCOCCOCCOCCOCCOCCOCCOC)CC(=O)Nc1c(C)cccc1C [mPEG8-Lidocaine, mPEG8-lidocaine] |  | 0.63 | 37.2% | 38.0 | 2 | 0.40 | 1 | 57.5 |  | pKa ([1]; read-out: pKa): 6.43 |
| Cc1cccc(C)c1OCC(C)NCCOCCOCCOCCNC(C)COc1c(C)cccc1C (stereo not drawn) [PEG4-Di-Mexiletine, PEG4-di-Mexiletine] | 7.73 | 2.36 |  |  |  |  |  | 7.32 | 0.14 |  |
| CCN(CCOCCOCCOCCOC)CC(=O)Nc1c(C)cccc1C [mPEG4-Lidocaine, mPEG4-lidocaine] |  | 1.42 |  |  |  |  | 2 | 178 |  | pKa ([1]; read-out: pKa): 6.46 |
| COCCOCCOCCOCCOCCOCCOCCN(CCOCCOCCOCCOCCOCCOCCOC)C(C)COc1c(C)cccc1C (stereo not drawn) [N,N-Di-mPEG7-Mexiletine, N,N-di-mPEG7-mexiletine] | 7.75 | 0.83 |  |  |  |  |  | 130 | 2 |  |
| CN(C)C(=O)C(CCN1CCC(O)(c2ccc(Cl)cc2)CC1)(c1ccccc1)c1ccccc1 [Loperamide, reference compound] |  |  |  |  |  |  |  |  |  | # of Responders ([3]; 0.75 mg/kg, SC): 4; % Reduction in Writhing ([3]; 0.75 mg/kg, SC): 78.6%; Responding Fraction ([3]; 0.75 mg/kg, SC): 1.00; Mean (writhes) ([3]; 0.75 mg/kg, SC, 30 min before IP 0.5% acetic acid, counted 0-20 min): 9.0 |
| COCCOCCOCCOCCOCCOCCOCCOCCNC(C)COc1c(C)cccc1C (stereo not drawn) [N-mPEG8-Mexiletine, N-mPEG8-mexiletine] | 8.79 | 1.79 | 65.8% | 17.2 | 3 | 0.60 |  | 90.5 | 2 |  |
| COCCOCCOCCOCCOCCN(CCOCCOCCOCCOCCOC)C(C)COc1c(C)cccc1C (stereo not drawn) [N,N-Di-mPEG5-Mexiletine, N,N-di-mPEG5-mexiletine] | 8.26 | 1.61 |  |  |  |  |  | 95.9 | 2 |  |
| CCN(CCOCCOCCOCCOCCOCCOCCOC)CC(=O)Nc1c(C)cccc1C [mPEG7-Lidocaine, mPEG7-lidocaine] |  |  | 40.5% | 36.0 | 2 | 0.40 | 2 |  |  | pKa ([1]; Table 1, lidocaine conjugates): 6.81; logP ([2]; Table 1, lidocaine conjugates): 1.37; IC50 [4, 10]: 236 µM |
| CCN(CCOCCOCCOCCOCCOCCOC)CC(=O)Nc1c(C)cccc1C [mPEG6-Lidocaine, mPEG6-lidocaine] |  | 1.23 |  |  |  |  | 5 | 473 |  | pKa ([1]; read-out: pKa): 6.46 |
| CCN(CCOCCOCCOC)CC(=O)Nc1c(C)cccc1C [mPEG3-Lidocaine, mPEG3-lidocaine] |  | 1.55 |  |  |  |  | 7 | 706 |  | pKa ([1]; read-out: pKa): 6.46 |
| CCN(CC)CC(=O)Nc1c(C)cccc1C [Lidocaine, lidocaine, reference compound] |  |  | 37.5% | 36.3 | 2 | 0.50 |  |  |  |  |
| COCCOCCOCCN(CCOCCOCCOC)C(C)COc1c(C)cccc1C (stereo not drawn) [N,N-Di-mPEG3-Mexiletine, N,N-di-mPEG3-mexiletine] | 7.76 | 1.96 |  |  |  |  |  | 66.2 | 1 |  |
